PubChem BioAssay (NCI)
Where “and” joins values, the source holds several entries; their conditions need not be identical. Equal entries are not always repeated.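 Following 48 hours of exposure in 96-well plates, responses at five concentrations were used to interpolate endpoints linearly. GI50 marks 50% less growth. TGI: concentration producing complete growth inhibition.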

Experiments:
Test in all cases: DTP human tumour cell line panel, 48 h
IGROV1 ovarian = system: IGROV1 ovarian
EKVX NSCLC = system: EKVX NSCLC
NCI-H23 lung = system: NCI-H23 lung
ACHN renal = system: ACHN renal
OVCAR-3 ovarian = system: OVCAR-3 ovarian
NCI-H460 lung = system: NCI-H460 lung
LOX IMVI melanoma = system: LOX IMVI melanoma
OVCAR-8 ovarian = system: OVCAR-8 ovarian
LXFL 529 NSCLC = system: LXFL 529 NSCLC
KM20L2 colon = system: KM20L2 colon

Structure (SMILES) | GI50 (IGROV1 ovarian) | TGI (IGROV1 ovarian) | GI50 (EKVX NSCLC) | TGI (EKVX NSCLC) | GI50 (NCI-H23 lung) | TGI (NCI-H23 lung) | GI50 (ACHN renal) | TGI (ACHN renal) | GI50 (OVCAR-3 ovarian) | TGI (OVCAR-3 ovarian) | GI50 (NCI-H460 lung) | TGI (NCI-H460 lung) | GI50 (LOX IMVI melanoma) | TGI (LOX IMVI melanoma) | GI50 (OVCAR-8 ovarian) | TGI (OVCAR-8 ovarian) | TGI (LXFL 529 NSCLC) | TGI (KM20L2 colon) | GI50 (LXFL 529 NSCLC)
Cn1c(I)c(C#CCO[Si](C)(C)C(C)(C)C)c(=O)[nH]c1=O | 17.2 µM | 32.7 µM | 17.5 µM | 32.8 µM | 19.3 µM | 39.5 µM | 15.9 µM | 29.5 µM | 6.49 µM | 16.2 µM | 53.8 µM | > 100 µM | 1.83 µM | 4.42 µM | 22.4 µM | 51.7 µM |  |  | 
CC(=O)OC1COC(Oc2c(C)c3c4c(c2O)[C@@H](C)CC[C@@H]4[C@@H](C)C[C@H]3C=C(C)C)C(O)C1OC(C)=O (stereo not given in full) | 13.4 µM | 28.8 µM | 22.6 µM | 45.5 µM | 7.49 µM | 18.6 µM | 11 µM | 22.9 µM | 10.6 µM | 23.3 µM | 8.36 µM | > 100 µM | 12 µM | 25.7 µM | 16 µM | 32.9 µM |  |  | 
c1ccc(-c2nnc(-c3ccccn3)s2)nc1 | 27.3 µM | > 100 µM | > 100 µM | > 100 µM | > 100 µM | > 100 µM | > 100 µM | > 100 µM | > 100 µM | > 100 µM | > 100 µM | > 100 µM | > 100 µM | > 100 µM | > 100 µM | > 100 µM |  |  | 
O=C1CCC2(c3ccc(Cl)cc3)Nc3ncccc3N12 (stereo not given) |  | > 100 µM |  | > 100 µM |  | > 100 µM |  | > 100 µM |  | > 100 µM |  | > 100 µM |  | > 100 µM |  | > 100 µM | > 100 µM | > 100 µM | 
N#Cc1c(NC(=O)NCc2ccccc2)sc2c1CCCCC2 | 0.719 µM | > 100 µM | 0.461 µM | > 100 µM | 0.695 µM | > 59.8 µM | 0.629 µM | > 100 µM | 0.346 µM | 1.61 µM | 0.352 µM | > 31.7 µM | 0.573 µM | > 100 µM | 1.61 µM | > 100 µM |  |  | 
O=C(Nc1ccc(Br)cc1F)c1cc(F)ccc1O | 0.37 µM | > 100 µM | 1.3 µM | 7.38 µM | 0.386 µM | 3.15 µM | 0.499 µM | 11.3 µM | 0.411 µM | 6.64 µM | 0.491 µM | 9.75 µM | 0.405 µM | 2.91 µM | 1.3 µM | 15 µM |  |  | 
Clc1ccc2c(c1)[nH]c1c2nc2ccccn21 |  | 85.8 µM and > 100 µM | 51.9 µM and 21.6 µM | > 100 µM and 63.2 µM |  | 72.3 µM and 44.9 µM | 28.1 µM | 83 µM |  |  | 44.3 µM and 17.4 µM | > 100 µM and 35.9 µM |  |  | 44.5 µM and 17 µM | > 100 µM and 33.1 µM | > 100 µM and 30 µM | 74.9 µM and 28.7 µM | 35.9 µM and 16.2 µM
CC1(C)CC(=O)C(C=NC(=S)c2ccccc2)=C(O)C1 |  | > 100 µM |  | > 100 µM |  | > 100 µM |  | > 100 µM |  | > 100 µM |  | > 100 µM |  | > 100 µM |  | > 100 µM |  |  | 
COc1ccccc1/C=N\N/C(N)=N\N=C\c1ccccc1OC | 0.923 µM |  | 0.574 µM | 14.3 µM | 0.618 µM | > 31.2 µM | 2.82 µM | > 53.1 µM | 0.157 µM | 0.393 µM | 0.348 µM | 4.37 µM | 2.4 µM | > 39.5 µM | 0.301 µM | 17.5 µM |  |  | 
COC(=O)COc1ccccc1/C=C1\N=C(c2ccccc2)N(c2cc(C(F)(F)F)ccc2Cl)C1=O | 57 µM | > 100 µM | > 100 µM | > 100 µM | > 100 µM | > 100 µM | 57 µM | > 100 µM | 34 µM | 98.6 µM | 59.6 µM | > 100 µM | 24.9 µM | 73.6 µM | 37.3 µM | > 100 µM |  |  | 
CCOC(=O)c1ccc(NC(=O)Oc2ccc3c(C)cc(=O)oc3c2)cc1 |  | > 100 µM |  | > 100 µM |  | > 100 µM |  | > 100 µM |  | > 100 µM |  | > 100 µM |  | > 100 µM |  | > 100 µM |  |  | 
O=C(Nc1ccc(Nc2ccncc2)cc1)c1ccc([N+](=O)[O-])cc1 | 13 µM | 36.9 µM | 11.2 µM | > 61.2 µM | 10.8 µM | > 62.6 µM | 4.62 µM | 19.7 µM | 1.93 µM | 3.76 µM | 4.24 µM | 16.5 µM | 3.72 µM | 14.7 µM | 8.44 µM | 32.6 µM |  |  | 
COc1cc(Nc2ncccc2C(=O)NCc2cn(Cc3cccc(Oc4ccccc4)c3)nn2)cc(OC)c1 | > 100 µM | > 100 µM | 6.33 µM | > 100 µM | 6.22 µM | > 100 µM | 6.9 µM | > 100 µM | 3.69 µM | > 100 µM | 3.98 µM | > 100 µM | 5.1 µM | > 100 µM | 5.96 µM | > 100 µM |  |  | 
CN1CCN(C2CCN(C(=O)Nc3cc(Oc4ccc(NC(=O)C5(C(=O)Nc6ccc(F)cc6)CC5)c(F)c4)ccn3)CC2)CC1 | 1.1 µM | > 10 µM | > 1.99 µM | > 8.76 µM | 1.23 µM | > 3.42 µM | 1.3 µM | > 10 µM |  | > 3.02 µM | 1.44 µM | > 10 µM | 1.04 µM | > 10 µM |  | > 10 µM |  |  | 
CC1(C)S[C@@H]2[C@H](NC(=O)C3(N)CCCCC3)C(=O)N2[C@H]1C(=O)O |  | > 100 µM |  | > 100 µM |  | > 100 µM |  | > 100 µM |  | > 100 µM |  | > 100 µM |  | > 100 µM |  | > 100 µM |  |  | 
O=C(O)COc1ccc2c(=O)c3sc4c(=O)c5ccccc5c(=O)c4c3c(=O)c2c1 | 18.3 µM | 48.3 µM | 16.8 µM | 78.8 µM | 2.71 µM | 8.57 µM | 23 µM | > 100 µM | 13.5 µM | 33.9 µM | 3.51 µM | 10.4 µM | 9.18 µM | 61.1 µM | 24.8 µM | 73.6 µM |  |  | 
